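Each compound was tested at five concentrations against cells in 96-well plates for 48 hours. Here, GI50 denotes the concentration required for 50% inhibition of growth.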 Active and inactive are the calls of the source. No stated cut-off is given here; in the data, active = GI50 up to about 1.1 µM and inactive = higher.
Assays:
Test in all cases: DTP human tumour cell line panel, 48 h
[1] = test system: SW-620
[2] = test system: SF-268
[3] = test system: SN12C
[4] = test system: Malme-3M
[5] = test system: SR
[6] = test system: OVCAR-5
[7] = test system: UACC-257
[8] = test system: CCRF-CEM
[9] = test system: UACC-62
[10] = test system: OVCAR-8
[11] = test system: COLO 205
[12] = test system: OVCAR-4
[13] = test system: MCF7
[14] = test system: MOLT-4
[15] = test system: SK-OV-3
[16] = test system: U-251
[17] = test system: SK-MEL-2
[18] = test system: DU-145
[19] = test system: SF-539
[20] = test system: T47D

| SMILES | GI50 [1] | GI50 [2] | GI50 [3] | GI50 [4] | GI50 [5] | GI50 [6] | GI50 [7] | GI50 [8] | GI50 [9] | GI50 [10] | GI50 [11] | GI50 [12] | GI50 [13] | GI50 [14] | GI50 [15] | GI50 [16] | GI50 [17] | GI50 [18] | GI50 [19] | GI50 [20] |
| --- | --- | --- | --- | --- | --- | --- | --- | --- | --- | --- | --- | --- | --- | --- | --- | --- | --- | --- | --- | --- |
| COc1ccc(NC2Oc3cc4c(cc3C(c3cc(OC)c(OC)c(OC)c3)C2C)OCO4)cc1 (stereo not given) | 0.428 µM (active) | 0.959 µM (active) | 0.541 µM (active) | 0.365 µM (active) | 0.352 µM (active) | 2.17 µM (inactive) | 0.605 µM (active) | 0.944 µM (active) | 0.597 µM (active) | 0.655 µM (active) | 0.386 µM (active) | 0.566 µM (active) | 0.394 µM (active) | 0.422 µM (active) | 0.948 µM (active) | 0.379 µM (active) | 0.538 µM (active) | 0.574 µM (active) | 0.222 µM (active) | – |
| COC1(OC)CC(CO)(CNc2nc(N)nc(Cl)c2C=O)C1 | 53.2 µM (inactive) | 44.2 µM (inactive) | 28.4 µM (inactive) | 81.7 µM (inactive) | 20.1 µM (inactive) | > 100 µM (inactive) | 27 µM (inactive) | 27.8 µM (inactive) | – | 43 µM (inactive) | > 100 µM (inactive) | 25.2 µM (inactive) | 57.7 µM (inactive) | 21.1 µM (inactive) | – | 34.6 µM (inactive) | – | 95.9 µM (inactive) | > 100 µM (inactive) | – |
| O=C(Cc1nc2ccc(C(=O)c3ccccc3)cc2nc1O)C(=O)Nc1ccccc1[N+](=O)[O-] | 53.7 µM (inactive) | 87.7 µM (inactive) | > 100 µM (inactive) | 80.9 µM (inactive) | 29.2 µM (inactive) | > 100 µM (inactive) | > 100 µM (inactive) | 50.9 µM (inactive) | 55.3 µM (inactive) | 33.5 µM (inactive) | – | 32.4 µM (inactive) | 50 µM (inactive) | – | > 100 µM (inactive) | 88.5 µM (inactive) | 91.2 µM (inactive) | – | > 100 µM (inactive) | 54.3 µM (inactive) |
| CCC(C)C1NC(=O)CNC(=O)C2Cc3c([nH]c4cc(O)ccc34)[S+]([O-])CC(NC(=O)CNC1=O)C(=O)NC(CC(=O)O)C(=O)N1CC(O)CC1C(=O)NC(C(C)C(O)CO)C(=O)N2 (stereo not given) | 36.2 µM (inactive) | 1.64 µM (inactive) | 4.63 µM (inactive) | 1.19 µM (inactive) | – | 16.1 µM (inactive) | 2.44 µM (inactive) | 6.24 µM (inactive) | 2.35 µM (inactive) | 3.7 µM (inactive) | 1.41 µM (inactive) | 2.07 µM (inactive) | 5.12 µM (inactive) | 3.72 µM (inactive) | 13.2 µM (inactive) | 3.83 µM (inactive) | 2.08 µM (inactive) | – | 0.45 µM (active) | – |
| Clc1ccc(CCN[C@H]2CCCC[C@H]2N2CCCC2)cc1Cl | 34 µM (inactive) | 32.2 µM (inactive) | 20.2 µM (inactive) | 15.9 µM (inactive) | 28.7 µM (inactive) | 20.6 µM (inactive) | 12 µM (inactive) | 30.7 µM (inactive) | 17.8 µM (inactive) | 26.3 µM (inactive) | 13.6 µM (inactive) | 21.5 µM (inactive) | 16.1 µM (inactive) | 24.4 µM (inactive) | 22.8 µM (inactive) | 43.7 µM (inactive) | 20.8 µM (inactive) | 21.8 µM (inactive) | 28.4 µM (inactive) | – |
| COc1ccc(CC(N)=O)cc1OC | > 1250 µM (inactive) | > 1250 µM (inactive) | > 1250 µM (inactive) | > 1250 µM (inactive) | – | > 853 µM (inactive) | 703 µM (inactive) | > 1250 µM (inactive) | > 1250 µM (inactive) | 198 µM (inactive) | > 1250 µM (inactive) | > 1250 µM (inactive) | > 1250 µM (inactive) | > 1250 µM (inactive) | > 1250 µM (inactive) | > 1250 µM (inactive) | > 1250 µM (inactive) | – | > 1250 µM (inactive) | – |
| O=C(OCC(OC(=O)c1ccccc1)C1CC(C2(O)CCCCC2)C(=O)O1)c1ccccc1 (stereo not given) | > 25 µM (inactive) | > 25 µM (inactive) | > 25 µM (inactive) | > 25 µM (inactive) | 7.59 µM (inactive) | > 25 µM (inactive) | > 25 µM (inactive) | 13.4 µM (inactive) | 0.0462 µM (active) | > 25 µM (inactive) | > 25 µM (inactive) | > 25 µM (inactive) | 21 µM (inactive) | 6.64 µM (inactive) | > 25 µM (inactive) | > 25 µM (inactive) | > 25 µM (inactive) | > 25 µM (inactive) | > 25 µM (inactive) | – |
| COc1ccc(/C=C(\C#N)c2ccccn2)cc1OC | 56.1 µM (inactive) | 33 µM (inactive) | 53 µM (inactive) | 46.8 µM (inactive) | 33.8 µM (inactive) | 51.4 µM (inactive) | > 100 µM (inactive) | 60.5 µM (inactive) | 58.7 µM (inactive) | > 100 µM (inactive) | 69.2 µM (inactive) | 73.1 µM (inactive) | 17.9 µM (inactive) | 57.4 µM (inactive) | 29.8 µM (inactive) | 16.3 µM (inactive) | 51.2 µM (inactive) | 32.1 µM (inactive) | 31.9 µM (inactive) | – |
| CN(CCO)/N=N/c1n[nH]cc1C(N)=O | > 100 µM (inactive) | > 100 µM (inactive) | > 100 µM (inactive) | > 100 µM (inactive) | – | > 100 µM (inactive) | > 100 µM (inactive) | > 100 µM (inactive) | > 100 µM (inactive) | > 100 µM (inactive) | > 100 µM (inactive) | > 100 µM (inactive) | > 100 µM (inactive) | > 100 µM (inactive) | > 100 µM (inactive) | > 100 µM (inactive) | > 100 µM (inactive) | – | > 100 µM (inactive) | – |
| C=CCONC(=O)c1ccc(Cl)cc1 | > 100 µM (inactive) | > 100 µM (inactive) | > 100 µM (inactive) | > 100 µM (inactive) | > 100 µM (inactive) | > 100 µM (inactive) | > 100 µM (inactive) | > 100 µM (inactive) | > 100 µM (inactive) | > 100 µM (inactive) | > 100 µM (inactive) | > 100 µM (inactive) | – | > 100 µM (inactive) | > 100 µM (inactive) | > 100 µM (inactive) | > 100 µM (inactive) | – | > 100 µM (inactive) | – |
| O=[N+]([O-])c1cccc2c1[nH]c1c(-c3ccccc3)nccc12 | 3.41 µM (inactive) | 4.04 µM (inactive) | 2.7 µM (inactive) | 2.24 µM (inactive) | – | 3.9 µM (inactive) | 1.94 µM (inactive) | 1.68 µM (inactive) | 1.74 µM (inactive) | 3.52 µM (inactive) | 2.02 µM (inactive) | 2.02 µM (inactive) | 2.33 µM (inactive) | 1.71 µM (inactive) | 2.01 µM (inactive) | 2.51 µM (inactive) | 1.07 µM (active) | – | 3.19 µM (inactive) | – |
| CN(C)CCNC(=O)c1cccc2[nH]c(-c3ccccn3)nc12 | 24.9 µM (inactive) | 28 µM (inactive) | 34.8 µM (inactive) | 24.9 µM (inactive) | – | 38.2 µM (inactive) | 28.6 µM (inactive) | 23.5 µM (inactive) | 20.2 µM (inactive) | 27.9 µM (inactive) | 14 µM (inactive) | 27.5 µM (inactive) | 31.5 µM (inactive) | 20.7 µM (inactive) | 32.6 µM (inactive) | 38.8 µM (inactive) | 39.7 µM (inactive) | – | 43.5 µM (inactive) | – |
| OCC#CCNCl | > 100 µM (inactive) | > 100 µM (inactive) | > 100 µM (inactive) | > 100 µM (inactive) | – | > 100 µM (inactive) | > 73.6 µM (inactive) | > 100 µM (inactive) | > 100 µM (inactive) | > 100 µM (inactive) | > 100 µM (inactive) | > 100 µM (inactive) | > 100 µM (inactive) | > 100 µM (inactive) | > 100 µM (inactive) | > 100 µM (inactive) | > 100 µM (inactive) | – | > 100 µM (inactive) | – |
| O=C(CCN1CCCC1)c1ccc(Oc2ccc(F)cc2)cc1 | 78.7 µM (inactive) | 87.3 µM (inactive) | 97.1 µM (inactive) | 27.8 µM (inactive) | – | > 100 µM (inactive) | 43.1 µM (inactive) | 26.5 µM (inactive) | 54.2 µM (inactive) | > 100 µM (inactive) | 23 µM (inactive) | > 100 µM (inactive) | 15.6 µM (inactive) | 24.4 µM (inactive) | > 100 µM (inactive) | > 100 µM (inactive) | > 100 µM (inactive) | 53.5 µM (inactive) | 29.9 µM (inactive) | – |
| CCOC(=O)[C@H](Cc1ccc(O)cc1)/N=C1/[C@H]2CCC[C@]1(O)[C@@](C)([N+](=O)[O-])C2 | > 100 µM (inactive) | – | > 100 µM (inactive) | > 100 µM (inactive) | > 100 µM (inactive) | > 100 µM (inactive) | > 100 µM (inactive) | > 100 µM (inactive) | > 100 µM (inactive) | > 100 µM (inactive) | > 100 µM (inactive) | > 100 µM (inactive) | > 100 µM (inactive) | > 100 µM (inactive) | > 100 µM (inactive) | > 100 µM (inactive) | – | > 100 µM (inactive) | > 100 µM (inactive) | – |
| c1cc(-c2cn3c(n2)SCC3)ccn1 | > 25.2 µM (inactive) | > 100 µM (inactive) | > 100 µM (inactive) | > 100 µM (inactive) | > 100 µM (inactive) | > 100 µM (inactive) | > 100 µM (inactive) | > 61.4 µM (inactive) | > 100 µM (inactive) | > 100 µM (inactive) | > 57.8 µM (inactive) | > 100 µM (inactive) | – | > 100 µM (inactive) | > 100 µM (inactive) | > 73.3 µM (inactive) | > 100 µM (inactive) | – | > 44.9 µM (inactive) | – |
